In PMC8111499, “GW117: A novel serotonin (5‐HT2C) receptor antagonist and melatonin (MT1/MT2) receptor agonist with potential antidepressant‐like activity in rodents” (CNS Neuroscience & Therapeutics, 2021):

Tests used:
[1] = target: T1, MT1 receptor (Homo sapiens, UniProt P48039); experiment: [35S]‐GTPγS binding assay, MT1; format: biochemical
T1 construct: purchased Perkin‐Elmer ES‐620
Method: (§1) This experiment was mentioned earlier. ^27 In short, HEK293 cell membrane stably expressing human 5‐HT2C receptors or rat hippocampal tissue membrane or MT1/MT2 receptors was re‐suspended in buffer (50 mmol/L Tris, 100 mmol/L NaCl, 5 mmol/L MgCl2·6H2O, 0.1 mmol/L EDTA‐Na2·6H2O, 0.2 mmol/L EGTA, pH 7.4) and incubated with the test compound (100 μM GDP, 0.2 nM [^35S]‐GTP, or [^3H]PIP) for 60 min at 28℃. At the end of the experiment, Whatman GF/C filters pre‐soaked with distilled water were used for rapid filtration followed by washing with 5 ml of ice‐cold Tris buffer. Determination of non‐specific binding in the presence of GTPγS and radioactivity was measured by liquid scintillation counting. Calculation of the concentration produces a half‐maximal effect (EC50) and the maximal increase above the baseline value.

[2] = test system: mice; experiment: Locomotor activity in mice; format: in vivo, ICR mice; conditions: for Locomotor activity, Crossing number / Locomotor activity, Rearing number: Mice, mean ± S.E.M.
Method: (§2) In order to confirm whether GW117 has an antidepressant activity, we used spontaneous activities in mice and rats to determine whether GW117 affects the central system. 64 ICR mice were randomly allocation to five therapy groups ([…]): control group, 5 mg/kg GW117, 10 mg/kg GW117, 20 mg/kg GW117, and 40 mg/kg GW117. All rats and mice received one administration (p.o.). After sixty minutes of gavage administration, each mouse or rat was located in the corner of an open field chamber (36 × 29 × 23 cm for mice; 76 × 76 × 46 cm for rats) to adapt to 5 min. The numbers of crossings and rearings were recorded during the subsequent 5 min.

[3] = test system: rats; experiment: Forced swimming test in rats; format: in vivo, Sprague Dawley (SD) rats; conditions: single dose p.o., 10, 20, or 40 mg/kg, vs. vehicle
Method: The forced swimming test (FST) was conducted as described earlier. ^30 Eighty naive rats were randomized into eight treatment groups (n = 9‐12/group). All rats received a single drug administration (p.o.). The procedure consisted of two sessions, to be specific, a pre‐test session and a test session. A cylindrical container (diameter, 20 cm; height, 40 cm; including 30 cm of water and kept at 25℃) was used. During the pre‐test phase, rats were required to perform forced swimming for 15 min. The test session was performed 24 h later, put the rats in the same cylindrical container for 5 min and immobility duration over 5 min recorded. […] Rats were considered immobile when they entered a floating posture, specifically, immobile, passive, and with their heads above water.

[4] = previous study; cited from earlier work
[5] = test system: rats; experiment: Locomotor activity in rats; format: in vivo; conditions: for Locomotor activity, Crossing number / Locomotor activity, Rearing number: Rats, mean ± S.E.M.
Method: as §2

[6] = target: T2, MT2 receptor (Homo sapiens, UniProt P49286); experiment: [35S]‐GTPγS binding assay, MT2; format: biochemical
T2 construct: purchased Perkin‐Elmer ES‐621
T2 sequence (P49286 1-362): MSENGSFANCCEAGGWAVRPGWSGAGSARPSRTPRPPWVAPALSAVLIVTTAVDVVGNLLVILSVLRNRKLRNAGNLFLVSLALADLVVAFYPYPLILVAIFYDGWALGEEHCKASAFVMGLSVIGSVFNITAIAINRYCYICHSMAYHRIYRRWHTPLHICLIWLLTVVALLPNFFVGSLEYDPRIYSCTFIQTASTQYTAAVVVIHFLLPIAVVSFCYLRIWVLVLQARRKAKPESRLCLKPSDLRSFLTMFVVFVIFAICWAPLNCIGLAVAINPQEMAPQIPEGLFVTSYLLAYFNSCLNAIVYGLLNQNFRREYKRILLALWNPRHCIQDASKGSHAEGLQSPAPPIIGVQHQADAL
Method: as §1

T1 sequence (P48039 whole entry): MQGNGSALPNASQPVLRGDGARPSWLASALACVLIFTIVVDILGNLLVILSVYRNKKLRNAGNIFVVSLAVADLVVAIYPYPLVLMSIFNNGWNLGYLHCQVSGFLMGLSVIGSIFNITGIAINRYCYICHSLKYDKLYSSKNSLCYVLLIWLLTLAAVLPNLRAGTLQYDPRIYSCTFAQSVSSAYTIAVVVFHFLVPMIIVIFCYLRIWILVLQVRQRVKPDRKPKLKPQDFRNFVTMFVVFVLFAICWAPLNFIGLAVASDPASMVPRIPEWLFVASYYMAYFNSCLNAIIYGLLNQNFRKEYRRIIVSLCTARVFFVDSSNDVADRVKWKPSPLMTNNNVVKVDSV

[2H]C([2H])([2H])Oc1cc2c(CCNC(C)=O)cccc2cc1Cl [GW117]
character of effect on MT1 receptor ([1]; [35S]‐GTPγS binding): full agonist
Emax ([1]; [35S]‐GTPγS binding, read-out: maximal increase over basal binding (% Emax), MT1 receptor): 104 ± 7.34%
EC50 ([1]; read-out: EC50 of stimulation of specific [35S]‐GTPγS binding, MT1 receptor): 2.49 nM
Locomotor activity, Crossing number ([2]; 5 mg/kg p.o.): 86.8 ± 4.4
Locomotor activity, Rearing number ([2]; 5 mg/kg p.o.): 22.7 ± 1.8
Locomotor activity, Crossing number ([2]; 10 mg/kg p.o.): 80.1 ± 4.8
Locomotor activity, Rearing number ([2]; 10 mg/kg p.o.): 22.6 ± 2.1
Locomotor activity, Rearing number ([2]; 20 mg/kg p.o.): 20.7 ± 1.5
Locomotor activity, Crossing number ([2]; 40 mg/kg p.o.): 86.3 ± 4.4
Locomotor activity, Rearing number ([2]; 40 mg/kg p.o.): 21.3 ± 1.4
effect on number of crossings and rearings in the spontaneous activity test ([2]; mice, 5, 10, 20, or 40 mg/kg by gavage): had no effect
immobility time in FST [3]: markedly reduced the immobility time
toxic effects compared with agomelatine [4]: lower toxic effects
Locomotor activity, Crossing number ([5]; 5 mg/kg p.o.): 70.3 ± 5.1
Locomotor activity, Rearing number ([5]; 5 mg/kg p.o.): 14.2 ± 1.4
Locomotor activity, Crossing number ([5]; 10 mg/kg p.o.): 71.3 ± 6.8
Locomotor activity, Rearing number ([5]; 10 mg/kg p.o.): 14.9 ± 1.5
Locomotor activity, Crossing number ([5]; 20 mg/kg p.o.): 60.9 ± 4.4
Locomotor activity, Rearing number ([5]; 20 mg/kg p.o.): 13.8 ± 1.3
Locomotor activity, Crossing number ([5]; 40 mg/kg p.o.): 63.5 ± 4.6
Locomotor activity, Rearing number ([5]; 40 mg/kg p.o.): 12.8 ± 1.3
effect on number of crossings and rearings in the spontaneous activity test ([5]; rats, 5, 10, 20, or 40 mg/kg by gavage): had no effect
character of effect on MT2 receptor ([6]; [35S]‐GTPγS binding): full agonist
Emax ([6]; [35S]‐GTPγS binding, read-out: maximal increase over basal binding (% Emax), MT2 receptor): 103 ± 4.56%
EC50 ([6]; read-out: EC50 of stimulation of specific [35S]‐GTPγS binding, MT2 receptor): 1.54 nM
